Drawing on patent US20090137625A1, “Novel Enantiomers and Their Use as Monoamine Neurotransmitter Re-Uptake Inhibitors” (priority 2005, published 2009), this text covers melting point and IC50 for five compounds.

For data set [1], the target named is T1, DA-uptake (reuptake of dopamine in synaptosomes) (Rattus norvegicus, UniProt P23977).
T1 construct: in synaptosomes as described in WO 97/16451; from tissue
The data set can be described thus: Inhibition of dopamine (DA) reuptake in synaptosomes. It counts as biochemical.

Data set [2] has as its target T2, NA-uptake (reuptake of noradrenaline in synaptosomes) (Rattus norvegicus, UniProt Q9WTR4).
T2 construct: in synaptosomes as described in WO 97/16451; from tissue
The data set can be described thus: Inhibition of noradrenaline (NA) reuptake in synaptosomes. It counts as biochemical.

In data set [3] the target is T3, 5-HT-uptake (reuptake of serotonine in synaptosomes) (Rattus norvegicus, UniProt P31652).
T3 construct: in synaptosomes as described in WO 97/16451; from tissue
T3 sequence (P31652 whole entry): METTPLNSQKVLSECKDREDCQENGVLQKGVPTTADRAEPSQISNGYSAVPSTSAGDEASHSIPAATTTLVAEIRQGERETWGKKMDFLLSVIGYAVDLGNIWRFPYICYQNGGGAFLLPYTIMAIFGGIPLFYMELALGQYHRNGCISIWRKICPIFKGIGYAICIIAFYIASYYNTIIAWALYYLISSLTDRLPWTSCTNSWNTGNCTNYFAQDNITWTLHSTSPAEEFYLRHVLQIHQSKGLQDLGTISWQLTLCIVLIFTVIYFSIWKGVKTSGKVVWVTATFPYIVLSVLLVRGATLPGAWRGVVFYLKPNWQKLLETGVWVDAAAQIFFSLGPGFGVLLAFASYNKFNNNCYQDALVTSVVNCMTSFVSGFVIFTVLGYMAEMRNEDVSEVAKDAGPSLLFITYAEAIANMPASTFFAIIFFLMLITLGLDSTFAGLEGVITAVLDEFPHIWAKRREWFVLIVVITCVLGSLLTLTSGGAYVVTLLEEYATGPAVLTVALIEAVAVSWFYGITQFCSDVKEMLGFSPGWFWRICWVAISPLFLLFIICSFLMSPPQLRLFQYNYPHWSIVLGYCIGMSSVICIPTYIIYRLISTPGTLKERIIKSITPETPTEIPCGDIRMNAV
The data set can be described thus: Inhibition of serotonine (5-HT) reuptake in synaptosomes. Type of data set: biochemical.

[4] abbreviates: synaptosomes, 3H-DA, read-out: DA-uptake IC50.
The mark [5] stands for this setting: synaptosomes, 3H-NA, read-out: NA-uptake IC50.
Setting [6] is: synaptosomes, 3H-5-HT, read-out: 5-HT-uptake IC50.

For orientation: melting point means the temperature, or range, at which the solid turns liquid. Usually IC50 stands for the concentration at which inhibition is half-maximal.

SMILES strings stand for the structures. Structures can show the parent of a compound that is named as a salt. Where two headings read alike, the source gives them in different places.

T1 sequence (P23977 whole entry): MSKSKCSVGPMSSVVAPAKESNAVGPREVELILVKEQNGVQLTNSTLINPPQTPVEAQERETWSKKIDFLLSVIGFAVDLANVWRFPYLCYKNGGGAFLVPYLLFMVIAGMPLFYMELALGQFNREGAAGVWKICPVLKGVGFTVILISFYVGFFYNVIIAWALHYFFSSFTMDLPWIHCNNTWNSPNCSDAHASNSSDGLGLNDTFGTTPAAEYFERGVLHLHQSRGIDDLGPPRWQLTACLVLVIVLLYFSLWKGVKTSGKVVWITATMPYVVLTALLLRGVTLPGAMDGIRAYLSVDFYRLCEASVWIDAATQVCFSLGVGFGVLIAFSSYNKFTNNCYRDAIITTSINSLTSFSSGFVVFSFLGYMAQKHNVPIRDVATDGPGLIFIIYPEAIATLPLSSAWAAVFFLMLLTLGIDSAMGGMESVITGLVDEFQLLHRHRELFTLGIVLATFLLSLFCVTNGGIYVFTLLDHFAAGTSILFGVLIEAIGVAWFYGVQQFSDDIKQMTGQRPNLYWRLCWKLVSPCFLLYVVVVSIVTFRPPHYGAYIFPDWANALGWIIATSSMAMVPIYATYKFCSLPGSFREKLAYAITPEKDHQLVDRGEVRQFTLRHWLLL
T2 sequence (Q9WTR4 1-597): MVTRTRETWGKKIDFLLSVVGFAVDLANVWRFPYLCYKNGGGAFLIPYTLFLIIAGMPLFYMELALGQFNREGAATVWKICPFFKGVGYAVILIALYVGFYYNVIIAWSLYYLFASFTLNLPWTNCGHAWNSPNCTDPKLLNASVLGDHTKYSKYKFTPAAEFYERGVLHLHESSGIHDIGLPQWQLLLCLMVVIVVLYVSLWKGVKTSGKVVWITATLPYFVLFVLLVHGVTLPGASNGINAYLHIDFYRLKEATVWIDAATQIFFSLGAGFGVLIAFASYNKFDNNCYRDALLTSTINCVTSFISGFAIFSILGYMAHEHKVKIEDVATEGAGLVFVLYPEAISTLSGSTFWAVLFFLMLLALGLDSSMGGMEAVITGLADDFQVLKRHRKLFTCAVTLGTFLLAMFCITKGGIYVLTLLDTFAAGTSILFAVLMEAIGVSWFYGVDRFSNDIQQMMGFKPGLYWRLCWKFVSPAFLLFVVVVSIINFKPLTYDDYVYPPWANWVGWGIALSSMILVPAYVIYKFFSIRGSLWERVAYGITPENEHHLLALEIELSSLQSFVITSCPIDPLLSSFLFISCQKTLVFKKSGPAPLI

`C1=C(c2ccc3ccccc3c2)CC2CCC1N2` (single isomer, unassigned; (+)) (as salt: tartaric acid salt) [1st compound of method D, (+)-3-Naphthalen-2-yl-8-aza-bicyclo[3.2.1]oct-2-ene] returned a melting point of 183 to 189 °C.

With `Clc1ccc(C2=CC3CCC(C2)N3)cc1` (single isomer, unassigned; (+)) [1st compound of method A, (+)-3-(4-Chlorophenyl)-8-H-8-aza-bicyclo[3.2.1]oct-2-ene], the half-maximal inhibitory concentration (IC50) in data set [1] (setting [4]) is 260 nM; in data set [2] (setting [5]), 28 nM; in data set [3] (setting [6]), 10 nM.

Take `C1=C(c2ccc3ccccc3c2)CC2CCC1N2` (single isomer, unassigned; (+)) [1st compound of method D, (+)-3-Naphthalen-2-yl-8-aza-bicyclo[3.2.1]oct-2-ene]: the IC50 in data set [1] was 58 nM; in data set [2], 13 nM; in data set [3], 0.34 nM.

Compound `CN1C2C=C(c3ccc4ccccc4c3)CC1CC2` (single isomer, unassigned; (-)) (as salt: hydrochloric acid salt) [1st compound of method E, (−)-8-Methyl-3-(naphthalen-2-yl)-8-aza-bicyclo[3.2.1]oct-2-ene] yielded a melting point of 265 °C.

`CN1C2C=C(c3ccc4ccccc4c3)CC1CC2` (single isomer, unassigned; (-)) [1st compound of method E, (−)-8-Methyl-3-(naphthalen-2-yl)-8-aza-bicyclo[3.2.1]oct-2-ene]: the results for the IC50 in data set [1] (setting [4]), in data set [2] (setting [5]) and in data set [3] (setting [6]) were 34 nM, 18 nM and 0.23 nM, respectively.
